Here are results for 16 compounds from patent publication US10611760B2, “Therapeutic compounds as inhibitors of the orexin-1 receptor” (C4X Discovery Limited, priority 2014, dated 2020).

Assay type in all cases: cell-based
The target in test [1] is T1, hOX2R (Homo sapiens, UniProt O43614).
T1 sequence (O43614 1-444): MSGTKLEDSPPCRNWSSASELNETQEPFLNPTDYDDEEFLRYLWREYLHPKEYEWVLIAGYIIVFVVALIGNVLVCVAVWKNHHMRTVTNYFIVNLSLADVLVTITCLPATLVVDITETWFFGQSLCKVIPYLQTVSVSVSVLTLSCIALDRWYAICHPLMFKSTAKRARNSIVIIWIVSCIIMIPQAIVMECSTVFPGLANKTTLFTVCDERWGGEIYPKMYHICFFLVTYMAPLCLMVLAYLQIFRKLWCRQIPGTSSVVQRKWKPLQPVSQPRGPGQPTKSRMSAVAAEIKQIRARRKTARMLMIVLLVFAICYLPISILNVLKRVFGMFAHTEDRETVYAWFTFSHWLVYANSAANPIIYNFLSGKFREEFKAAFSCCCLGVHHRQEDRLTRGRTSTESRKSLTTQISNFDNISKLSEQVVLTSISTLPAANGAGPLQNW
The test can be described thus: Intracellular calcium measurements using division-arrested cells, OX2. The following applies: agonist orexin B at 2×EC50, * = single experiment, otherwise average of at least two, read-out: pIC50 OX2 (converted). An outline of the steps:
(§1)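 Division-arrested cells expressing human OX1 or OX2 were seeded for 16 h, then loaded with Calcium 5 dye plus probenecid for 1 h at 37 °C. Compounds in HEPES-buffered HBSS with 0.1% BSA, pH 7.4, top final concentration 10 μM, were added 10 min before the FlexStation calcium read.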
A general note: A change in cytosolic calcium serves as a functional read-out for many receptors and channels.

Test [2] deals with T1, hOX2R. Briefly: Intracellular calcium measurements using stable-replicating cells, Method A, OX2. The following applies: orexin-A at 4×EC50, * = single experiment, read-out: pIC50 OX2 (converted). The protocol:
(§2) Intracellular Calcium Measurements Using Stable-replicating Cells:
(§3) Method A (Table 2): Test compounds are prepared as 10 mM stock solutions in DMSO, warmed briefly for 20 seconds at 37° C. and serially diluted in half log concentrations with DMSO followed by dilution with assay buffer (HBSS (Sigma-Aldrich, H8264) containing 10 mM HEPES (Invitrogen, 15630080) and pH adjusted to 7.4) to a top final assay concentration of 10 μM.
(§4) Human OX1 (CT-A674) and human OX2 (CT-A675) receptor-expressing stable-replicating cells are grown in a culture medium, Ham F12 (Invitrogen, 31765-035) containing 10% fetal bovine serum (Invitrogen, 16000044), 1% non-essential amino acids (Invitrogen, 11140-050), 100 U/mL Penicillin/Streptomycin (Invitrogen, 15140-122) and G418 (Invitrogen, 11811023) at a concentration of 400 μg/mL. The cells are seeded at a density of 7,000 cells/well into black, clear bottom 384-well plates (Corning, 3683) and incubated at 37° C. in air supplemented with 5% CO2 for 16 hrs.
(§5) Loading dye (25 μL/well), prepared from a FLIPR Calcium 6 Assay kit (Molecular Devices, R8190-Explorer) according to the manufacturer's instructions, and the serially diluted test compounds (10 μL/well) are added to the plate. The plate is then incubated for 30 mins at 37° C. in 5% CO2, then for 30 mins at ambient temperature and placed into a FlexStation III reader.

The target of test [3] is T2, hOX1R (Homo sapiens, UniProt O43613).
T2 sequence (O43613 1-425): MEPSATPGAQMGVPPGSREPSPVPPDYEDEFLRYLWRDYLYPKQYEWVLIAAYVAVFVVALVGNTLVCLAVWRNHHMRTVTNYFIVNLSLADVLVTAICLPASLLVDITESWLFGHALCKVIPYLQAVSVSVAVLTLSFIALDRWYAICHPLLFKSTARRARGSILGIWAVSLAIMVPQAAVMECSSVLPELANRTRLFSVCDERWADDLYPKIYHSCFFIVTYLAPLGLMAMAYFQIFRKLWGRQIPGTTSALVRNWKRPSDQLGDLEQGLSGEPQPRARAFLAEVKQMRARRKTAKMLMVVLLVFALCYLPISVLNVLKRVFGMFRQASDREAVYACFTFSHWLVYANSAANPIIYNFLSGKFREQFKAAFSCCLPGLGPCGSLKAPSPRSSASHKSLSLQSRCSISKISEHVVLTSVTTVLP
Briefly: Intracellular calcium measurements using division-arrested cells, OX1. The settings on record: agonist orexin A at 2×EC50, * = single experiment, otherwise average of at least two, read-out: pIC50 OX1 (converted). A digest of the protocol:
as §1

The target in test [4] is T2, hOX1R. The test can be described thus: Intracellular calcium measurements using stable-replicating cells, Method A, OX1. The settings on record: orexin-A at 4×EC50, * = single experiment, read-out: pIC50 OX1 (converted). Here is the method: as §2, §3, §4, §5
In test [5] the target is T1, hOX2R. The test can be described thus: Intracellular calcium measurements using stable-replicating cells, Method B (CHO cells, FLIPR Tetra), OX2. The settings on record: orexin A at EC75, read-out: pIC50 OX2 (converted). The protocol: as §2
(§6) Human OX1 or human OX2 receptor expressing CHO cells are plated into 384 well black, clear bottom, CellBIND plates at a seeding density of 10,000 cells/75 μL growth media. The seeded plates are incubated at 37° C. in air supplemented with 5% CO2 overnight.
(§7) The next day media is removed and replaced with 30 μL/well of cell loading buffer (a vial of Calcium 5 is solubilized in 20 mL of assay buffer) and the cells incubated for 1 hr at 37° C. The serially diluted test compounds (10 μL/well) are added to the cell plate by the FLIPR Tetra and the addition is monitored for 5 mins by the instrument. The cell plate is then removed and incubated for additional 25 mins in a humidified incubator at […] prior to being placed back into the FLIPR Tetra. Finally 10 μL of orexin A in assay buffer +0.1% (w/v) bovine serum albumin is dispensed by the FLIPR Tetra at an EC75 concentration determined for each assay run. Fluorescence is measured at excitation and emission wavelengths of 485 nm and 525 nm respectively and data analyzed using GraphPad Prism for the EC75 value of orexin A and Aplus to determine an IC50 value for each test compound.

For test [6], the target named is T2, hOX1R. The test can be described thus: Intracellular calcium measurements using stable-replicating cells, Method B (CHO cells, FLIPR Tetra), OX1. The following applies: orexin A at EC75, read-out: pIC50 OX1 (converted). Here is the method: as §2, §6, §7

As to `CC[C@@H](CNc1ccc(Cl)cn1)N(C)C(=O)c1cc(C)ccc1-n1nccn1` [Example 1, (S)—N-(1-((5-chloropyridin-2-yl)amino)butan-2-yl)-N,5-dimethyl-2-(2H-1,2,3-triazol-2-yl)benzamide], the IC50 is 1 µM on hOX2R [1] and 1.26 µM at hOX2R [2].
With `Cc1nc(-c2ccccc2)c(C(=O)N[C@H](CNc2ccc(Cl)cn2)C(C)C)s1` [Example 6, (S)—N-(1-((5-chloropyridin-2-yl)amino)-3-methylbutan-2-yl)-2-methyl-4-phenylthiazole-5-carboxamide], the IC50 is 0.501 µM at hOX1R [3], more than 10 µM on hOX2R [1], 3.16 µM on hOX1R [4] and more than 10 µM at hOX2R [2].
As to `Cc1nc(-c2ccccc2)c(C(=O)N(C)[C@H](CNc2ccc(Cl)cn2)CC(C)C)s1` [Example 9, (S)—N-(1-((5-chloropyridin-2-yl)amino)-4-methylpentan-2-yl)-N,2-dimethyl-4-phenylthiazole-5-carboxamide], the IC50 at hOX1R [3] is 0.251 µM; on hOX2R [1], more than 10 µM; at hOX1R [4], 2 µM; on hOX2R [2], more than 10 µM.
As for `CC[C@@H](CNc1ncc(C(F)(F)F)cn1)N(C)C(=O)c1cc(Cl)ccc1-n1nccn1` [Example 39, (S)-5-chloro-N-methyl-2-(2H-1,2,3-triazol-2-yl)-N-(1-((5-(trifluoromethyl)pyrimidin-2-yl)amino)butan-2-yl)benzamide], the IC50 was 1 µM on hOX2R [1], 1.58 µM at hOX2R [5] and more than 10 µM at hOX2R [2].
`CC[C@@H](CNc1ccc(C(F)(F)F)nn1)N(C)C(=O)c1cc(Cl)ccc1-n1nccn1` [Example 41, (S)-5-chloro-N-methyl-2-(2H-1,2,3-triazol-2-yl)-N-(1-((6-(trifluoromethyl)pyridazin-3-yl)amino)butan-2-yl)benzamide]: the IC50 was 0.2 µM at hOX1R [3], more than 10 µM at hOX2R [1], 0.02 µM at hOX1R [6] and more than 5.01 µM on hOX2R [5].
Regarding `CC[C@@H](CNc1nc2ccccc2o1)N(C)C(=O)c1cc(Cl)ccc1-n1nccn1` [Example 43, (S)—N-(1-(benzo[d]oxazol-2-ylamino)butan-2-yl)-5-chloro-N-methyl-2-(2H-1,2,3-triazol-2-yl)benzamide], the IC50 was 0.000794 µM at hOX1R [6], 0.01 µM at hOX1R [4], 0.794 µM on hOX2R [5] and 1 µM on hOX2R [2].
With `CC[C@@H](CNc1nc2ccccc2s1)N(C)C(=O)c1cc(Cl)ccc1-n1nccn1` [Example 44, (S)—N-(1-(benzo[d]thiazol-2-ylamino)butan-2-yl)-5-chloro-N-methyl-2-(2H-1,2,3-triazol-2-yl)benzamide], the figures for the IC50 at hOX1R [6] and on hOX1R [4] were 0.00158 µM and 0.00794 µM, respectively.
For `CC[C@@H](CNc1ncc(Cl)cc1[N+](=O)[O-])N(C)C(=O)c1cc(Cl)ccc1-n1nccn1` [Example 45, (S)-5-chloro-N-(1-((5-chloro-3-nitropyridin-2-yl)amino)butan-2-yl)-N-methyl-2-(2H-1,2,3-triazol-2-yl)benzamide], the IC50 is 0.126 µM on hOX1R [4] and more than 10 µM on hOX2R [2].
For `Cc1ccc(-n2nccn2)c(C(=O)N(C)[C@H](CNc2ccc(Cl)cn2)C(C)C)c1` [Example 49, (S)—N-(1-((5-chloropyridin-2-yl)amino)-3-methylbutan-2-yl)-N,5-dimethyl-2-(2H-1,2,3-triazol-2-yl)benzamide], the IC50 is 0.0316 µM at hOX1R [3], more than 5.01 µM at hOX2R [1], 0.00501 µM at hOX1R [6] and more than 3.98 µM on hOX2R [5].
Turning to `CC[C@@H](CNc1ncc(Cl)cc1N)N(C)C(=O)c1cc(Cl)ccc1-n1nccn1` [Example 60, (S)—N-(1-((3-amino-5-chloropyridin-2-yl)amino)butan-2-yl)-5-chloro-N-methyl-2-(2H-1,2,3-triazol-2-yl)benzamide], the IC50 on hOX1R [4] was 0.0398 µM; on hOX2R [2] it was more than 10 µM.
Take `CC[C@@H](CNc1nc2ccccc2o1)N(C)C(=O)c1nc(C)ccc1-n1nccn1` [Example 62, (S)—N-(1-(benzo[d]oxazol-2-ylamino)butan-2-yl)-N,6-dimethyl-3-(2H-1,2,3-triazol-2-yl)picolinamide]: the IC50 at hOX1R [6] is 0.00316 µM; at hOX1R [4], 0.00501 µM; at hOX2R [5], 2.51 µM.
In the case of `CC[C@@H](CNc1nc2cc(Cl)ccc2o1)N(C)C(=O)c1nc(C)ccc1-n1nccn1` [Example 64, (S)—N-(1-((5-chlorobenzo[d]oxazol-2-yl)amino)butan-2-yl)-N,6-dimethyl-3-(2H-1,2,3-triazol-2-yl)picolinamide], the figures for the IC50 at hOX1R [4] and at hOX2R [2] were 0.00501 µM and 2.51 µM, respectively.
For `CC[C@@H](CNc1ncc(C(F)(F)F)cn1)N(C)C(=O)c1nc(C)cc2ccccc12` [Example 78, (S)—N,3-dimethyl-N-(1-((5-(trifluoromethyl)pyrimidin-2-yl)amino)butan-2-yl)isoquinoline-1-carboxamide], the IC50 is 0.0158 µM on hOX1R [6], 0.0251 µM at hOX1R [4] and 1 µM at hOX2R [2].
The like results for `CC[C@@H](CNc1ncc(C(F)(F)F)cn1)N(C)C(=O)c1nccc2ccccc12` [Example 85, (S)—N-methyl-N-(1-((5-(trifluoromethyl)pyrimidin-2-yl)amino)butan-2-yl)isoquinoline-1-carboxamide] were, in that order, 0.1 µM, 0.0501 µM and 3.16 µM.
As for `CC[C@@H](CNc1ccc(Cl)cn1)N(C)C(=O)c1cc(C)c(C)cc1-n1nccn1` [Example 86, (S)—N-(1-((5-chloropyridin-2-yl)amino)butan-2-yl)-N,4,5-trimethyl-2-(2H-1,2,3-triazol-2-yl)benzamide], the IC50 at hOX1R [4] is 0.00794 µM; on hOX2R [2], 0.316 µM.
For `Cc1ccc(-n2nccn2)c(C(=O)N(C)[C@H](CNc2ncc(C(F)(F)F)cn2)CC(F)(F)F)n1` [Example 88, (S)—N,6-dimethyl-3-(2H-1,2,3-triazol-2-yl)-N-(4,4,4-trifluoro-1-((5-(trifluoromethyl)pyrimidin-2-yl)amino)butan-2-yl)picolinamide], the IC50 was 0.01 µM at hOX1R [6], 0.0398 µM at hOX1R [4] and more than 10 µM at hOX2R [2].
